# System: KK-Ay/Ta Jci type 2 diabetes mice
# Assay: In-vivo blood sugar and lipid reduction in diabetes model mice (KKAy mice)
# Set-up: species or system mouse
# Conditions: 30 mg/kg orally one time per day for 4 days, 5th day vs 1st day
# Experimental: Test for in-vivo Evaluation of the Activities for Blood Sugar Reduction and Lipid Reduction Using Diabetes Model Mice (KKAy Mice)
# Type 2 diabetes mice “KK-Ay/Ta Jci” (male, Clea Japan, Inc., 10-week old) put in cages were used (each cage contained 5 mice). In the morning of the 1st day of test start, a blood was collected from the orbital vein of each mouse. The blood sugar value in the blood was measured by subjecting the blood to deproteinization using perchloric acid, subjecting the resulting material to centrifugation, and subjecting the resulting supernatant liquid to a new blood sugar test (Boehringer Mannheim). Further, the blood was subjected to centrifugation to obtain a plasma and the triglyceride concentration and free fatty acid concentration in the plasma were measured using Triglyceride E-Test Wako and NEFA-C Test Wako (Wako Pure Chemical Industries, Ltd.), respectively. Grouping was made so that the blood sugar values in individual groups became the same. Then, an Example 2 compound (exemplary compound No. 61) was suspended in a 0.5% aqueous CMC solution and administered orally one time per day for 4 days. In the 5th day of test, blood collection was made to measure blood sugar value, triglyceride concentration and free fatty acid concentration. Incidentally, a group to which only the 0.5% aqueous CMC solution was administered, was used as a control group; and Pioglitazone was used in a positive control group. The reduction in parameter in each group was calculated using the following formula.
# Reduction (%)={1−(parameter of 5th day in each group)/(parameter of 1st day in each group)}×100
smiles,measurement,setting,value
"CCc1ccc(CCOc2ccc(CC3SC(=O)NC3=O)cc2)nc1 (stereo not drawn) [Pioglitazone, reference compound]",Reduction in blood sugar (%),,28%
same,Reduction in free fatty acid (%),plasma,49%
same,Reduction in triglyceride (%),plasma,60%

# Source: patent US20030212100A1, “Quinoline derivatives and medicinal use thereof” (priority 2000, published 2003)
